Entries after “also recorded” stand apart in the source; their conditions may differ.
Assays:
BoNTA [1] = target: T1, BoNTA (Clostridium botulinum, UniProt P0DPI1)
Target sequence in this assay (P0DPI1 2-448 limits assumed): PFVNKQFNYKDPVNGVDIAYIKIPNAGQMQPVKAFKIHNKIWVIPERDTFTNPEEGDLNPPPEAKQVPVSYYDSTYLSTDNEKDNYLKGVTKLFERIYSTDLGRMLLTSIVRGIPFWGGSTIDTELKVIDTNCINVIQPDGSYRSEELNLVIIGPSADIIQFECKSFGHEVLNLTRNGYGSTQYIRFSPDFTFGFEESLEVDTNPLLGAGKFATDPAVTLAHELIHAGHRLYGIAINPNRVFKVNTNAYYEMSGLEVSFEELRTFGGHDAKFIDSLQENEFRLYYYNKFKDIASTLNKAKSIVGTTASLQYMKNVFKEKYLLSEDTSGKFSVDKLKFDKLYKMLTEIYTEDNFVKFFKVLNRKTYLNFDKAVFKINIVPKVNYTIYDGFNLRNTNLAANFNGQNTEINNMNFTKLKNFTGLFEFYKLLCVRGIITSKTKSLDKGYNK

BoNTA [2] = target: T1, BoNTA; remark: listed apart in the source
Target sequence in this assay (P0DPI1 whole entry, looked up): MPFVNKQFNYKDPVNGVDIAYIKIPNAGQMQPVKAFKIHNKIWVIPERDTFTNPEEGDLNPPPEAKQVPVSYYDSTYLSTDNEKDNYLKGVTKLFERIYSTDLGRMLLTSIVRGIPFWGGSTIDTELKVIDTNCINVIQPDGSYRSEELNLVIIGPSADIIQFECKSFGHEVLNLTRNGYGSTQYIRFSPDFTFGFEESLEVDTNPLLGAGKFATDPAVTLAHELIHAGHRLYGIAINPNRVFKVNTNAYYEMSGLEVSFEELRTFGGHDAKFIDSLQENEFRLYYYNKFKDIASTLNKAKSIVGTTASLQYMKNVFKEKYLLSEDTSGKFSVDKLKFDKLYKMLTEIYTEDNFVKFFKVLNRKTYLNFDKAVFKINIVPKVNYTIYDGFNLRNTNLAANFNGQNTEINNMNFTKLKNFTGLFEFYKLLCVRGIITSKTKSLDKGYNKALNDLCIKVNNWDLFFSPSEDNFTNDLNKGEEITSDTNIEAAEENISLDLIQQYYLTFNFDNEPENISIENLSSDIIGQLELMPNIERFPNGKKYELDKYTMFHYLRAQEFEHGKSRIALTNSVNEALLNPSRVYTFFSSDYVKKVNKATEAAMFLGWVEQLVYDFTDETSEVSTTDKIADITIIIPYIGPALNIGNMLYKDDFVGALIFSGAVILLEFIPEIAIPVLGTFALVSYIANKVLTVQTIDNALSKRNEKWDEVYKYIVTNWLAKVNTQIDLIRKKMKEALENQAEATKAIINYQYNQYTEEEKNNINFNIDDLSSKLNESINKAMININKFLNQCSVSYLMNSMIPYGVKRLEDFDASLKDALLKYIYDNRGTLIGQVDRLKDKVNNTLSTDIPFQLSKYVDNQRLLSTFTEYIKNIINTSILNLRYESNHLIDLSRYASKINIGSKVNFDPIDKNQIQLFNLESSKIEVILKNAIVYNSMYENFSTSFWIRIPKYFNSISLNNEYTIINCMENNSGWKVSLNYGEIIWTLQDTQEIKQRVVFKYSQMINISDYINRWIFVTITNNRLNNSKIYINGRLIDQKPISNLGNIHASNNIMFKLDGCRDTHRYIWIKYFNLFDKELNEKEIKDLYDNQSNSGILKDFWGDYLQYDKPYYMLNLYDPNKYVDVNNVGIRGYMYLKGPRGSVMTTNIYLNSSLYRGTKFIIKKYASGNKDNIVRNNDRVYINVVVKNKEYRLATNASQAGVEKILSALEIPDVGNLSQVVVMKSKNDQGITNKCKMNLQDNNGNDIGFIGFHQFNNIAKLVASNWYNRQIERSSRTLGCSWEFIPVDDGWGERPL

BoNTA [3] = target: T1, BoNTA; remark: listed apart in the source
Target sequence in this assay (P0DPI1 whole entry, looked up): as above

Substance: Ac IIGNLRHMALDMGNEIDTQNRQIDRIMEKADSNKTRIDEAN Nop R A Pya K Nle L NH2 [Substrate S9]
- BoNT/A concentration that can be quantified (BoNTA [1]; pH 7.4): 0.2 ng/mL
- metabolites formed on cleavage by BoNTA (BoNTA [2]): only two metabolites formed
- parameters (Km, kcat, Vmax) for the hydrolysis, compared with SNAP 25 (BoNTA [3]): more favorable than for SNAP 25; also recorded: better than those reported for SNAP 25 itself and other substrates reported to date

Substance: ethylene diamine tetracetate [EDTA]
- effect on fluorescence emitted by degradation of substrate S1 by BoNT/A (enzymatic activity) (BoNTA [1]): inhibition of the fluorescence

Substance: Ac-S-N-K-T-R-I-D-E-A-N-Pya-R-A-Nop-K-Nle-L-NH2 [Pya^197Nop^200(187-203)SNAP25]
- cleavage by the toxin BoNT/A (BoNTA [1]): weakly cleaved

— patent US7875436B2 (priority 2004, dated 2011)
